Laboratory results as given in patent US11203583B2, “Prodrug and profluorescent compounds for selective mitochondrial imaging and therapeutic targeting” (ARIZONA BOARD OF REGENTS ON BEHALF OF ARIZONA STATE …, priority 2016, dated 2021).
“Also recorded” adds a separate entry of the source.

Legend:
[1] = tested on: NADH oxidase (mitochondrial respiratory complexes I, III, and IV); test: NADH oxidase activity assay in bovine heart submitochondrial particles; assay type: biochemical; details: for NADH oxidase inhibitory activity (qualitative comparison): 0.05, 0.1 and 0.5 μM concentrations, FIG. 9a
Method: The effect of compounds AMA, 4a and 4b on NADH oxidase activity were evaluated using bovine heart mitochondria. The bovine heart mitochondria and bovine heart submitochondrial particles (SMPs) were prepared as described.^2 The SMPs were diluted to 0.5 mg/mL, and the test compounds were assayed at 25° C. and monitored spectrophotometrically using a Beckman Coulter DU-530 spectrometer (340 nm, c 6.22 mM^−1 cm^−1). NADH oxidase activity was determined in 1 mL of 50 mM Hepes buffer containing 5 mM MgCl2, pH 7.5. The final mitochondrial protein concentration was 30 μg/mL. The initial rates of NADH oxidation were calculated from the linear portion of the traces. Data are reported as the mean of three independent experiments each run in triplicate.

[2] = tested on: mitochondrial nitroreductase in live A549 cells; test: Fluorescence microscopy: activation of prodrugs 4a and 4b (AMA release) in live A549 cells; assay type: cell-based, human; details: 25 μM; for localization of AMA fluorescence relative to mitochondria in A549 cells: MitoTracker Green FM; for release of AMA (appearance of AMA fluorescence, λem ~425 nm) in live A549 cells: 4 hours
Method: The finding of nitroreductase activity associated with the mitochondria of human cells encouraged us to design a new prodrug based on the mitochondrial poison antimycin A (AMA). It has recently been noted that AMA is toxic only at relatively high concentration,^19 plausibly due to a lack of facile access to the mitochondria. […] Accordingly, 0-p-nitrobenzyl-AMA (4a) was prepared in good yield by alkylation of AMA (FIG. 8a). Also prepared as a control was O-benzyl-AMA (4b). […] Accordingly, it is possible to monitor the release of AMA within the mitochondria after enzymatic reduction of the nitro moiety in 4a.
Fluorescence microscopy images were acquired using a Zeiss Axiovert 200M inverted microscope fitted with an AxioCam MRm camera equipped with a 300 W xenon lamp (Sutter, Novato, Calif., USA), and DAPI (blue channel) and Texas red (red channel) filters (Chroma, Bellows Falls, Vt., USA). A549 cells were grown on glass bottom microwell disks (MatTek Corporation, MA, USA) at a cell density of 10000 cells/well at 37° C. for 24 hours. When the cell confluence reached ˜60-70%, the cells were rinsed three times with phosphate buffered saline (PBS). The cells were then treated with AMA, 4a and 4b at 25 μM concentration for 4 hours. The cells were then stained using 100 nM MitoTracker Green FM (Cell Signaling Technology, Danvers, Mass., USA) for 40 minutes. Thereafter, all images were recorded and counted using a 40× oil objective. To ensure accurate intensity measurements, the exposure time and laser time were kept the same. Data are reported as the mean of three independent experiments.

[3] = Relative fluorescence quantum yield; assay type: physicochemical
Method: All experiments requiring anhydrous conditions were conducted in flame-dried glassware fitted with a rubber septum under a positive pressure of dry argon. Reactions were performed at room temperature unless otherwise indicated. Analytical thin layer chromatography was performed using glass plates pre-coated with silica gel (0.25 mm, 60 Å pore size, 230-400 mesh, Silicycle) impregnated with a fluorescent indicator (254 nm). TLC plates were visualized by exposure to ultraviolet light (UV) or by staining using […]. Flash column chromatography was performed employing silica gel (60 Å pore size, 40-63 μm, standard grade, Silicycle). Fluorescence quantum yields were measured at 25° C. by a relative method using cresyl violet (CV, ΦF=56% in EtOH) as a standard.^1 The following equation was used to determine the relative fluorescence quantum yield: ΦF(x)=(AS/AX)(FX/FS)(nX/nS)^2ΦF(s) where A is the absorbance (in the range of 0.01-0.1 A.U.), F is the area under the emission curve, n is the refractive index of the solvents (at 25° C.) used in measurements, and the subscripts s and x represent standard and unknown, respectively. The following refractive index values were used: 1.362 for EtOH and 1.337 for PBS.

A549 lung cancer cells = test: MTT toxicity assay; assay type: cell-based, human; details: 24 h incubation at 1, 5 and 10 μM, FIG. 9b
Method: Exponentially growing A459 cells were harvested and plated in 96-well plates at a concentration of 2×10^4 cells/well. After incubation at 37° C. for 24 h, the cells were treated with compounds AMA, 4a and 4b at final concentrations of 1, 5 and 10 μM for an additional 24 hours. Then 20 μL of MTT (5 mg/mL) was added to each well and the plates were incubated at 37° C. for 4 h. The supernatants were discarded, and 100 μL of DMSO was added to each well. The absorbance was recorded at 490 nm after 15 min. Cell viability was determined by the following formula: cell viability (%)=100−(ODnegative control−ODtreatment)×100%/(ODnegative control−ODbackground). Data are reported as the mean of three independent experiments, each run was carried out quintuplicate.

DT diaphorase = DT diaphorase (Homo sapiens, UniProt P15559); test: Selectivity of probe activation: DT diaphorase versus nitroreductase; assay type: biochemical; details: 10 μM 2c, 1 μg mL^-1 DTD or NTR, 10 mM PBS pH 7.4, 20 min, 25° C.
DT diaphorase, sequence (P15559 whole entry, species assumed): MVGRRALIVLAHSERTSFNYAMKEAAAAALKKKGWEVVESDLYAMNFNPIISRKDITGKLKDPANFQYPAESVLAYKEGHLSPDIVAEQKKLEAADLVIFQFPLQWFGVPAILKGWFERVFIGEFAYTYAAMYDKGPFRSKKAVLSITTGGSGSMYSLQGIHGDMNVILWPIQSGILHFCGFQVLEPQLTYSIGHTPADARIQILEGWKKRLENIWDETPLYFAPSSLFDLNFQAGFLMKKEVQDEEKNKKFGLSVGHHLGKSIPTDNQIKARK
Method: FIGS. 6A-6D. (a) Selective activation of 2c in vitro by E. coli nitroreductase. (b) Time dependent fluorescence emission by 2a, 2b and 2c (excitation at 572 nm; emission at 703 nm) in PBS at 25° C. following treatment with E. coli NTR (1 μg mL^−1) and 0.5 mM NADH. (c) Absorbance spectrum evolution with time during incubation of probe 2c in […] PBS buffer, pH 7.4, with E. coli NTR (1 μg mL^−1) and 0.5 mM NADH. (d) Development of fluorescence from 10 μM 2c following treatment with 1 μg mL^−1 DT diaphorase (DTD) or nitroreductase (NTR) in 10 mM PBS buffer, pH 7.4, for 20 min at 25° C. with or without […] NADH.
The strategy for the release of the fluorescent NIR dye from a non-fluorescent precursor via mitochondrial nitroreductase-mediated reduction involved successive reduction, then elimination (FIG. 5b). The use of ortho, meta and para substituted probes (2a-2c) was crucial because it enabled the investigation of the proposed transformation in greater detail. […] To assess the viability of these probes for the detection of nitroreductase activity, we first validated the probes in a cell free system using purified E. coli nitroreductase. […] After a short time, during which no fluorescence was observed, the nitroreductase was added (1 μg mL^−1) and the development of fluorescence was monitored as a function of time (FIGS. 6b, 6c). […]

[4] = tested on: mitochondrial nitroreductase in live A549 cells; test: Fluorescence microscopy: activation of probes 2a, 2b and 2c in live A549 cells; assay type: cell-based, human
Text: (§1) The strategy for the release of the fluorescent NIR dye from a non-fluorescent precursor via mitochondrial nitroreductase-mediated reduction involved successive reduction, then elimination (FIG. 5b). The use of ortho, meta and para substituted probes (2a-2c) was crucial because it enabled the investigation of the proposed transformation in greater detail. […] To assess the viability of these probes for the detection of nitroreductase activity, we first validated the probes in a cell free system using purified E. coli nitroreductase. Probes 2a-c (10 μM) were incubated in PBS buffer, pH 7.4, containing 0.5 mM NADH. After a short time, during which no fluorescence was observed, the nitroreductase was added (1 μg mL^−1) and the development of fluorescence was monitored as a function of time (FIGS. 6b, 6c). […] This confirms that the released fluorescent dye is effectively of the QCy7 type by comparison with an authentic standard prepared by chemical synthesis (FIG. 13). With the viability of this probe thus confirmed, we carried out microscopy experiments employing A549 cancer cells. The incubation of 10 μM 2c with the cells for 4 hours was followed by the addition of […] mitotracker green (40-minute incubation). […] The green channel (FIG. 7b) illustrates visualization of the mitochondria by mitotracker green. […] For 2b this is understandable as no elimination process is possible, as confirmed during the in vitro tests. In the case of 2a, we assume that the low kinetics of the reduction (c.f. FIG. 6b) is probably the cause of the absence of a strong signal. […]
Fluorescence images were acquired using a Zeiss Axiovert 200M inverted microscope fitted with an AxioCam MRm camera equipped with a 300 W xenon lamp (Sutter, Novato, Calif.), and Texas red and FITC filters (Chroma, Bellows Falls, Vt.). […] Thereafter, all images were recorded and the target cells counted using a 40× oil objective. […] Pixel intensity was quantified using AxioVision release 4.7 version software, and the mean pixel intensity was generated as gray level. […]

E. coli nitroreductase = E. coli nitroreductase (Escherichia coli, UniProt P38489); test: Cell-free activation of profluorescent probes by purified E. coli nitroreductase (fluorescence monitoring); assay type: biochemical
E. coli nitroreductase, sequence (P38489 whole entry): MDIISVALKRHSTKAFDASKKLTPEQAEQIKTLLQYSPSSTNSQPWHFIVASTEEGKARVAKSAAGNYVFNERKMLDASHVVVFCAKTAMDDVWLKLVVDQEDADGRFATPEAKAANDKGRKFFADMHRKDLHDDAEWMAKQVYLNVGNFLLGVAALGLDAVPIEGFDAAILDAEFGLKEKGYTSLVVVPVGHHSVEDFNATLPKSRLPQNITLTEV
Text: as §1
A solution of fluorogenic probe was prepared in 1 mL of phosphate buffered saline (PBS) and 150 μL of the resulting solution was transferred into a quartz fluorescence cell. […] After excitation at 572 nm the emission of the released fluorophore was monitored at 703 nm over time with measurements recorded every 1 sec. After 100 sec of incubation, 1.51 μL of a 1 mg mL^−1 solution of E. coli nitroreductase in water was added in the quartz fluorescence cell and the solution was mixed as the monitoring proceeded.

CCCCCC[C@H]1C(=O)O[C@H](C)[C@H](NC(=O)c2cccc(NC=O)c2O)C(=O)O[C@@H](C)[C@@H]1OC(=O)CC(C)C [AMA, antimycin A, reference compound]
inhibition of NADH oxidase ([1]; 50 nM concentration): essentially completely | NADH oxidase inhibitory activity (qualitative comparison) [1]: potent inhibitor | localization of AMA fluorescence relative to mitochondria in A549 cells [2]: did not fully colocalize with mitochondria | quantum yield of the released AMA [3]: ~0.06

CCCCCC[C@H]1C(=O)O[C@H](C)[C@H](NC(=O)c2cccc(NC=O)c2OCc2ccc([N+](=O)[O-])cc2)C(=O)O[C@@H](C)[C@@H]1OC(=O)CC(C)C [Compound 4a, 2-O-(p-Nitrobenzyl)AMA]
cytotoxicity toward A549 cancer cells (qualitative comparison) (A549 lung cancer cells): much more cytoxic toward A549 cancer cells than 4b; also recorded: considerably more cytotoxic than exogenously added AMA | NADH oxidase inhibitory activity (qualitative comparison) [1]: much weaker activity | release of AMA (appearance of AMA fluorescence, λem ~425 nm) in live A549 cells [2]: AMA was released from 4a | localization of AMA fluorescence relative to mitochondria in A549 cells [2]: Free AMA appeared exclusively in the mitochondria; also recorded: localized to the mitochondria

CCCCCC[C@H]1C(=O)O[C@H](C)[C@H](NC(=O)c2cccc(NC=O)c2OCc2ccccc2)C(=O)O[C@@H](C)[C@@H]1OC(=O)CC(C)C [Compound 4b, 2-O-Benzyl-AMA]
NADH oxidase inhibitory activity (qualitative comparison) [1]: much weaker activity | release of AMA (appearance of AMA fluorescence, λem ~425 nm) in live A549 cells [2]: no significant release of AMA; also recorded: not to a significant extent

CC[N+]1=C(/C=C/c2ccc(OCc3ccc([N+](=O)[O-])cc3)c(/C=C/C3=[N+](CC)c4ccccc4C3(C)C)c2)C(C)(C)c2ccccc21 [probe 2c]
activation by DT diaphorase versus nitroreductase, with or without NADH (DT diaphorase): significant activation occurred only in the presence of the nitroreductase+NADH | colocalization of probe fluorescence with MitoTracker Green (mitochondria) ([4]; 10 μM 2c, 100 nM MitoTracker Green FM, DAPI): colocalized to mitochondria; also recorded: complete overlap of the red and green signals | red fluorescence signal (release of QCy7 dye 3) in live A549 cells ([4]; 10 μM probe, 4 hours incubation, no hypoxic condition): activation of 2c by mitochondrial nitroreductase; also recorded: appearance of a red signal | concentration dependence of the signal in A549 cells ([4]; different times and concentrations, FIG. 16): concentration dependent | rate of activation by E. coli nitroreductase, compared between probes (E. coli nitroreductase; 10 μM probe, PBS pH 7.4, 0.5 mM NADH, NTR 1 μg mL^-1): much faster than the activation of 2a | development of fluorescence (activation) after addition of E. coli nitroreductase (E. coli nitroreductase; 10 μM probe, PBS pH 7.4, 0.5 mM NADH, NTR 1 μg mL^-1, excitation 572 nm, emission 703 nm, 25° C.): good activation | dependence of fluorescence / activation on probe concentration (E. coli nitroreductase; PBS 25° C., 0.5 mM NADH, E. coli NTR 1 μg mL^-1): linear correlation between fluorescence intensity and probe concentration; also recorded: increased with increasing substrate concentration
